Tests used:
[1] = target: MLKL (full length) (Homo sapiens (Human), UniProt Q8NB16); assay: KINOMEscan binding assay, MLKL (full length); settings: Table 36
Description: Kinase assays. For most assays, kinase-tagged T7 phage strains were grown in parallel in 24-well blocks in an E. coli host derived from the BL21 strain. E. coli were grown to log-phase and infected with T7 phage from a frozen stock (multiplicity of infection=0.4) and incubated with shaking at 32° C. until lysis (90-150 minutes).
The Hill Slope was set to −1.

[2] = test system: U937 human histiocytic leukemia cell line; assay: Cellular assay: inhibition of TSQ induced necroptosis (CellTitre-Glo); settings: Homo sapiens, U-937; U937 cells, TSQ cocktail, 48 hours, Table 38; read-out: Inhibition of TSQ-induced necroptosis (IC50 cell-based assay)
Description: […] ASSAY: Screening compounds for inhibition of TSQ induced necroptosis, 384 well plate format.
Cell Line ID: U937 human histiocytic leukemia cell line.
Cell Concentration (cells/well): Final cell density is 20,000 cells per well.
Cell growth medium: HT-RPMI medium+7.4% Fetal Bovine Serum (FBS). Cells are cultured in Corning 150 cm^z tissue culture flasks with vented caps at 37° C./5% CO2.
Incubation: Plates were incubated at 37° C./5% CO2 in a humidified incubator for 48 hours following addition of compounds and death stimuli (TSQ cocktail).
Compound concentration: 36 μM starting concentration, 1:3 dilution, 10 point
DMSO final concentration (% v/v): 0.3%.
Compounds in TSQ cocktail (T: TNF; S: Smac mimetic; Q: Q-VD-OPh) and their final concentrations: • hTNF-Fc (100 ng/ml)—produced by standard procedures as shown in Bossen et al., J Biol Chem, 2006, 281(20), 13964-13971. • Compound A (500 nM)—Smac mimetic, Tetralogic and SYNthesis med chem • Q-VD-OPh (10 μM)—MP Biomedicals
The cellular assay was carried out according to the following steps: • 1. Each well was prepared by sequential addition of: • a. DMSO (control; columns 1-2 and 23-24) or compound in DMSO—addition was performed using acoustic transfer of nl volumes of stock compound to give final test concentrations of 36, 12, 4, 1.3, 0.44, 0.148, 0.049, 0.016, 0.005 and 0.002 μM. All wells were backfilled with DMSO to a final total volume in the well of 100 nl. • b. Following compound/DMSO addition in step (a), 40 μL of cell suspension (5×10^5 cells/mL) was added to provide a final cell concentration of 20,000 cells per well, and • c. Following cell addition in step (b), 10 μL of 5×TSQ cocktail (except to positive controls; […]) was added to each well. • 2. After 48 hours, plate was removed from the 37° C. incubator and equilibrated to room temperature for 45 minutes. • 3. 15 μL of room temperature CellTitre-Glo2™ (Promega™) was added to each well. • 4. Shook plates for 2 minutes (˜600 rpm) and incubated at room temperature for 15 minutes to allow signal to stabilise. • 5. Read luminescence readout on a plate reader.
Percent viability was calculated for each compound according to equation (2):
[formula] • wherein • RawData is the readout of any cell containing a compound of the invention • TA is the total activity provided by the luminescence readout from DMSO only wells (columns 2 and 24)=100% viability • NSA is the non-specific activity provided by DMSO+TSQ wells (columns 1 and 23)=0% viability
Curve fitting: 10-point titration curves are fitted with the 4-parameter logistic nonlinear regression model and the IC50 reported is the inflection point of the curve.
Analysis: Data was loaded into Dotmatics™ and visualised using the Tibco® Spotfire™ software. 10 points titration curves were fitted with the 4-parameter logistic nonlinear regression model and the IC50 reported reflect the inflection point of the curve for curve fitting.
Assay involving the TSQ cocktail (T: TNF; S: Smac mimetic; Q: Q-VD-OPh): TSQ treatment ensures that cells specifically undergo necroptotic cell death. TNF activates the TNF receptor, Smac mimetic directs the signal away from proinflammatory signaling and toward the RIP1/RIP3-mediated cell death pathways, and Q-VD-OPh ensures that the apoptotic response is blocked leaving only the programmed necrosis response. The compounds' activity (solution in DMSO) tested in this TSQ-induced assay was evaluated by determining the number of viable cells in culture by measuring the amount of ATP present as measured by CelltiterGlo.

[3] = test system: U937 cells; assay: Counter screen: cell viability without TSQ cocktail (off-target effect); design: species or system human; settings: Homo sapiens, U-937, Table 38, read-out: Off-target effect (IC50 cell-based assay)
Description: Counter screen: In parallel, all compounds were tested for their ability to affect cell viability. The same U937 cells were treated with compound in DMSO without the TSQ cocktail. This counter screen enabled evaluation of off-target effects. In this case, cell viability was measured by CelltiterGlo.

Sequence of MLKL (full length) (Q8NB16 whole entry): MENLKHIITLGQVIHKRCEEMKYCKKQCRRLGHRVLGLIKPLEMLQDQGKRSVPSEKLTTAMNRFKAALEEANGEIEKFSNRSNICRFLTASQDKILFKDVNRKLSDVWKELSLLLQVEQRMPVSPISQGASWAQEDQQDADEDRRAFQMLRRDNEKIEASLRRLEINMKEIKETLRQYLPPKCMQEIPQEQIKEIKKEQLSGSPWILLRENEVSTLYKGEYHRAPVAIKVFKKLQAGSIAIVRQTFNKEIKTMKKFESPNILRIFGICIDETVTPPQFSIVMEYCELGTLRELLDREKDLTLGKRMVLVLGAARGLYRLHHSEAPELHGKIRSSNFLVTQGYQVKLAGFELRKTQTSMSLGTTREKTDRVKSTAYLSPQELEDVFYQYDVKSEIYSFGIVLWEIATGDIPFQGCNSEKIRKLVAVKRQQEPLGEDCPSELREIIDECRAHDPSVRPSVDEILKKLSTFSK

Row | Kd [1] | Structure (SMILES) | IC50 [2] | IC50 [3]
1 | < 10 nM | Cc1ncsc1-c1ccc(CNC(=O)[C@@H]2C[C@@H](O)CN2C(=O)[C@@H](NC(=O)COCCn2ccc(Nc3[nH]nc(-c4ccc(NS(=O)(=O)C(F)F)c(O[C@@H](C)c5ccc(F)cc5)c4)c3C(N)=O)n2)C(C)(C)C)cc1 [Compound 1036, 3-[4-(difluoromethanesulfonamido)-3-[(1S)-1-(4-fluorophenyl)ethoxy]phenyl]-5-({1-[2-({[(2S)-1-[(2S,4R)-4-hydroxy-2-({[4-(4-methyl-1,3-thiazol-5-yl)phenyl]methyl}carbamoyl)pyrrolidin-1-yl]-3,3-dimethyl-1-oxobutan-2-yl]carbamoyl}methoxy)ethyl]-1H-pyrazol-3-yl}amino)-1H-pyrazole-4-carboxamide] | 1 to 10 µM | > 10 µM
2 | < 10 nM | Cc1ncsc1-c1ccc(CNC(=O)[C@@H]2C[C@@H](O)CN2C(=O)[C@@H](NC(=O)COCCOc2cc(Nc3[nH]nc(-c4ccc(NS(=O)(=O)C(F)F)cc4)c3C(N)=O)ccn2)C(C)(C)C)cc1 [Compound 1012, 3-[4-(difluoromethanesulfonamido)phenyl]-5-({2-[2-({[(2S)-1-[(2S,4R)-4-hydroxy-2-({[4-(4-methyl-1,3-thiazol-5-yl)phenyl]methyl}carbamoyl)pyrrolidin-1-yl]-3,3-dimethyl-1-oxobutan-2-yl]carbamoyl}methoxy)ethoxy]pyridin-4-yl}amino)-1H-pyrazole-4-carboxamide] | > 10 µM | > 10 µM
3 | < 10 nM | Cc1ncsc1-c1ccc(CNC(=O)[C@@H]2C[C@@H](O)CN2C(=O)[C@@H](NC(=O)COCCOc2cc(Nc3[nH]nc(-c4ccc(NS(=O)(=O)CC(F)(F)F)cc4)c3C(N)=O)ccn2)C(C)(C)C)cc1 [Compound 1011, 5-({2-[2-({[(2S)-1-[(2S,4R)-4-hydroxy-2-({[4-(4-methyl-1,3-thiazol-5-yl)phenyl]methyl}carbamoyl)pyrrolidin-1-yl]-3,3-dimethyl-1-oxobutan-2-yl]carbamoyl}methoxy)ethoxy]pyridin-4-yl}amino)-3-[4-(2,2,2-trifluoroethanesulfonamido)phenyl]-1H-pyrazole-4-carboxamide] | > 10 µM | > 10 µM
4 | < 10 nM | Cc1ncsc1-c1ccc(CNC(=O)[C@@H]2C[C@@H](O)CN2C(=O)[C@@H](NC(=O)COCCOCCn2ccc(Nc3[nH]nc(-c4ccc(NS(=O)(=O)C(F)F)c(O[C@@H](C)c5ccc(F)cc5)c4)c3C(N)=O)n2)C(C)(C)C)cc1 [Compound 1037, 3-[4-(difluoromethanesulfonamido)-3-[(1S)-1-(4-fluorophenyl)ethoxy]phenyl]-5-[(1-{2-[2-({[(2S)-1-[(2S,4R)-4-hydroxy-2-({[4-(4-methyl-1,3-thiazol-5-yl)phenyl]methyl}carbamoyl)pyrrolidin-1-yl]-3,3-dimethyl-1-oxobutan-2-yl]carbamoyl}methoxy)ethoxy]ethyl}-1H-pyrazol-3-yl)amino]-1H-pyrazole-4-carboxamide] | < 1 µM | > 10 µM
5 | 10 to 1000 nM | CCS(=O)(=O)Nc1ccc(-c2n[nH]c(Nc3ccc(C(=O)OCCCCC(=O)N[C@H](C(=O)N4C[C@H](O)C[C@H]4C(=O)NCc4ccc(-c5scnc5C)cc4)C(C)(C)C)cn3)c2C(N)=O)cc1 [Compound 1060, 4-{[(2S)-1-[(2S,4R)-4-hydroxy-2-({[4-(4-methyl-1,3-thiazol-5-yl)phenyl]methyl}carbamoyl)pyrrolidin-1-yl]-3,3-dimethyl-1-oxobutan-2-yl]carbamoyl}butyl 6-{[4-carbamoyl-3-(4-ethanesulfonamidophenyl)-1H-pyrazol-5-yl]amino}pyridine-3-carboxylate] | < 1 µM | > 10 µM
6 | < 10 nM | Cc1ncsc1-c1ccc(CNC(=O)[C@@H]2C[C@@H](O)CN2C(=O)[C@@H](NC(=O)CCn2ccc(Nc3[nH]nc(-c4ccc(NS(=O)(=O)C(F)F)c(O[C@@H](C)c5ccc(F)cc5)c4)c3C(N)=O)n2)C(C)(C)C)cc1 [Compound 1032, 3-[4-(difluoromethanesulfonamido)-3-[(1S)-1-(4-fluorophenyl)ethoxy]phenyl]-5-{[1-(2-{[(2S)-1-[(2S,4R)-4-hydroxy-2-({[4-(4-methyl-1,3-thiazol-5-yl)phenyl]methyl}carbamoyl)pyrrolidin-1-yl]-3,3-dimethyl-1-oxobutan-2-yl]carbamoyl}ethyl)-1H-pyrazol-3-yl]amino}-1H-pyrazole-4-carboxamide] | > 10 µM | > 10 µM
7 | 10 to 1000 nM | CCS(=O)(=O)Nc1ccc(-c2n[nH]c(Nc3ccc(C(=O)OCCOCC(=O)N[C@H](C(=O)N4C[C@H](O)C[C@H]4C(=O)NCc4ccc(-c5scnc5C)cc4)C(C)(C)C)cn3)c2C(N)=O)cc1O[C@@H](C)c1ccc(F)cc1 [Compound 1046, 2-({[(2S)-1-[(2S,4R)-4-hydroxy-2-({[4-(4-methyl-1,3-thiazol-5-yl)phenyl]methyl}carbamoyl)pyrrolidine-1-yl]-3,3-dimethyl-1-oxobutan-2-yl]carbamoyl}methoxy)ethyl 6-[(4-carbamoyl-3-{4-ethanesulfonamido-3-[(1S)-1-(4-fluorophenyl)ethoxy]phenyl}-1H-pyrazol-5-yl)amino]pyridine-3-carboxylate] | < 1 µM | > 10 µM
8 | 10 to 1000 nM | Cc1ncsc1-c1ccc(CNC(=O)[C@@H]2C[C@@H](O)CN2C(=O)[C@@H](NC(=O)CCCCC#Cc2ccc(Nc3[nH]nc(-c4ccc(NS(=O)(=O)C(F)F)c(O[C@@H](C)c5ccc(F)cc5)c4)c3C(N)=O)nc2)C(C)(C)C)cc1 [Compound 1047, 3-[4-(difluoromethanesulfonamido)-3-[(1 S)-1-(4-fluorophenyl)ethoxy]phenyl]-5-{[5-(6-{[(2S)-1-[(2S,4R)-4-hydroxy-2-({[4-(4-methyl-1,3-thiazol-5-yl)phenyl]methyl}carbamoyl)pyrrolidin-1-yl]-3,3-dimethyl-1-oxobutan-2-yl]carbamoyl}hex-1-yn-1-yl)pyridin-2-yl]amino}-1H-pyrazole-4-carboxamide] | < 1 µM | 1 to 10 µM
9 | 10 to 1000 nM | CCS(=O)(=O)Nc1ccc(-c2n[nH]c(Nc3ccnc(OCCOCC(=O)N[C@H](C(=O)N4C[C@H](O)C[C@H]4C(=O)NCc4ccc(-c5scnc5C)cc4)C(C)(C)C)c3)c2C(N)=O)cc1 [Compound 1010, 3-(4-ethanesulfonamidophenyl)-5-({2-[2-({[(2S)-1-[(2S,4R)-4-hydroxy-2-({[4-(4-methyl-1,3-thiazol-5-yl)phenyl]methyl}carbamoyl)pyrrolidin-1-yl]-3,3-dimethyl-1-oxobutan-2-yl]carbamoyl}methoxy)ethoxy]pyridin-4-yl}amino)-1H-pyrazole-4-carboxamide] | > 10 µM | > 10 µM
